Results published in patent US9365499B2, “9-aminomethyl substituted tetracycline compounds” (KBP Biosciences Co., Ltd., priority 2011, dated 2016).
Values after ≈ are worked out from the molar mass of the structure shown. Like-named read-outs stand apart in the source and are kept apart here.

Experiments:
in vivo = assay: in vivo; design: species or system male SD rats; settings: male, SD, rat
Method: Test animals: male SD rats, weighing 180-280 g, purchased from Beijing Vital River Laboratory Animal Technology Co., Ltd.; animal Certificate of Conformity: SCXK (Beijing) 2006-0009. Six rats were tested for each compound. the compounds of the present invention, prepared in accordance with the methods of above Examples, dissolved in physiological saline. tigecycline, dissolved in physiological saline. Administration of the compounds of the present invention: intravenous bolus injection (iv), dose: 5 mg/kg, administrating volume: 5 mL/kg; gavage (po), dose: 5 mg/kg, administrating volume: 5 mL/kg. Administration of tigecycline: gavage (po), dose: 10 mg/kg, administrating volume: 5 mL/kg. Prior to administration help but water fasting for 16 hours, 4 hours after administration to food. Compound 9: iv blood sampling time point: denoted by 0 min before administration, 5 min, 15 min, 30 min, 1 […] after administration; po blood sampling time point: denoted by 0 min before administration, 5 min, 15 min, 30 min, 1 […] after administration; Compound 20: iv blood sampling time point: 5 min, 15 min, 30 min, 1 […] after administration; po blood sampling time point: 10 min, 30 min, 1 […] after administration; Compound 23: iv blood sampling time point: denoted by 0 min before administration, 5 min, 15 min, 30 min, 1 […] after administration; po blood sampling time point: denoted by 0 min before administration, 5 min, 15 min, 30 min, 1 […] after administration; Tigecycline: iv blood sampling time point: 5 min, 15 min, 30 min, 1 h, 2 h, 4 h, 6 h, 8 h after administration; po blood sampling time point: 10 min, 30 min, 1 […] after administration. Each time point is taken around 100 μl whole blood and placed in a heparinized tube, centrifugated at 8000 rpm/min at 4° C. for 6 minutes in a low-temperature high-speed centrifuge to separate plasma, the resulting plasma was frozen at -80° C. refrigerator. Plasma samples analysis: 20 μl of plasma was taken and added 200 μl of internal standard solution, subjected to vortex for 3 minutes, then to centrifugation at 12,000 rpm/min for 5 minutes. 100 μl of supernatant was taken and analyzed using LC-MS/MS. Formula Absolute Bioavailability F%=[AUC](po)×Dose(iv)/[AUC](iv)×Dose(po)

Staphylococcus aureus [1] = assay: bactericidal effects in vivo in neutropenic mouse thigh model with Staphylococcus aureus infection; design: species or system mice; settings: for change values (24 h vs blank group mean 0 h) / log10 CFU for each thigh, mean ± standard deviations (24 h): 2 dose times, subcutaneous
Method: Bactericidal Effects of the Present Compounds In Vivo in Mouse Thigh Model with Staphylococcus aureus Infection SPF grade CD-1 (ICR) female mice housed in SPF environment, weighing 25±2 g, purchased from Beijing Vital River Laboratory Animal Technology Co., Ltd., licensed […] No: SCXK (Beijing) 2006-0009. Staphylococcus aureus: purchased from Shanghai Renji Hospital. Four days before bacterial infection, intraperitoneal (ip) injection of cyclophosphamide 150 mg/kg; 1 day before bacterial infection, intraperitoneal (ip) injection of cyclophosphamide 100 mg/kg; Picked fresh Staphylococcus aureus single colonies which were plate cultured for 18 h, and inoculated into broth and cultured at 35° C. for 18 h. The bacterial suspension was diluted with broth, and 0.5 McFarland turbidity standard indicator bacteria suspension was prepared with a McFarland turbiditor, 10-fold diluted with broth and injected into the thigh muscle of mice in an amount of 0.1 mL for each thigh. The concentration of the bacteria suspension was about 10^6-10^7 CFU/ml. The inoculum concentration was determined by an agar-plate count method. Blank Group: the animals were sacrificed by dislocation at 2 h (recorded as 0 h) after the inoculation of bacteria. Solvent group: The first administration time was set at 2 h (denoted as 0 h) after the animals were infected with bacteria, the solvent was subcutaneously administrated, the animals were sacrificed by dislocation at 24 h after the administration. Treatment group: The first administration time was set at 2 h (denoted as 0 h). […] The thigh muscle tissue was separated from the sacrificed animals, and 5 mL of sodium chloride injection was added, homogenated. The homogenate obtained were diluted series, taken 0.05 mL and inoculated to agar plates, two plates were inoculated in parallel for each gradient bacterial suspension, and incubated at 35° C. for 18 h. Observe the growth of the colonies on each plate, and select the plates with the number of colonies between 30-300 for colony count. The number of colonies was recorded as n1, n2. N represents the diluted fold. The number of colonies (units CFU) for each thigh was calculated according to the formula of “(n1+n2)/2/0.05×5×N”. A logarithm to the base 10 for the number of colonies of each thigh was calculated to obtain log10 CFU value for each thigh.

Escherichia coli = assay: antibacterial activity in vitro, agar dilution method; assay type: cell-based
Description: (§1) The antibacterial spectrum and in vitro antibacterial activity of the compound of the present invention
(§2) Experimental method: the agar dilution method, with reference to Clinical And Laboratory Standards Institute. Methods for Dilution Antimicrobial Susceptibility Tests for Bacteria That Grow Aerobically; Approved Standard-Seventh Edition. CLSI Document M7-A7. Vol 26, no. 2, Wayne, Pa.: Clinical and Laboratory Standards Institute, 2006.
(§3) Wherein MIC represents the minimum inhibitory concentration, MIC90 represents the 90% inhibitory concentration.

[2] = tested on: Streptococcus constellatus; assay: as above; assay type: cell-based; settings: Table 5, MIC90 = 90% inhibitory concentration
Description: as §1, §2, §3

[3] = tested on: Acinetobacter calcoaceticus; assay: as above; assay type: cell-based; settings: Table 4
Description: as §1, §2, §3

Enterococcus faecalis = assay: as above; assay type: cell-based; settings: Table 4
Description: as §1, §2, §3

Klebsiella pneumoniae = assay: as above; assay type: cell-based
Description: as §1, §2, §3

Hemophilus influenzae = assay: as above; assay type: cell-based; settings: Haemophilus influenzae; Table 5; MIC90 = 90% inhibitory concentration
Description: as §1, §2, §3

[4] = tested on: Methicillin-resistant Staphylococcus aureus (MRSA); assay: as above; assay type: cell-based; settings: for MIC90: Table 5, MIC90 = 90% inhibitory concentration
Description: as §1, §2, §3

Acinetobacter baumannii = assay: as above; assay type: cell-based; settings: for MIC90: Table 5, MIC90 = 90% inhibitory concentration
Description: as §1, §2, §3

Staphylococcus aureus [5] = assay: as above; assay type: cell-based; settings: for MIC90: Staphylococcus aureus, Table 5, MIC90 = 90% inhibitory concentration; for MIC: Table 10, Staphylococcus aureus of the thigh model
Description: as §1, §2, §3

Streptococus agalactiae = assay: as above; assay type: cell-based; settings: Table 4
Description: as §1, §2, §3

[6] = male SD rats, 5 mg/kg iv, cited from earlier work
[7] = monkey, oral; cited from earlier work
[8] = cited from earlier work
[9] = tested on: Methicillin-resistant Staphycoccus epidermidis (MRSE); assay: antibacterial activity in vitro, agar dilution method; assay type: cell-based; settings: Staphylococcus epidermidis, Table 2
Description: as §1, §2, §3

Streptococcus pyogenes = assay: as above; assay type: cell-based; settings: Table 2
Description: as §1, §2, §3

[10] = Table 4, agar dilution, read-out: antibacterial activity MIC, Acinetobacter baumannii

Structure (SMILES)	AUC(0-inf) (in vivo; iv, 5 mg/kg)	Vd (in vivo; iv, 5 mg/kg)	clearance (in vivo; iv, 5 mg/kg)	half-life (in vivo; iv, 5 mg/kg)	change values (24 h vs blank group mean 0 h) (Staphylococcus aureus [1]; 2 mg/kg/day)	log10 CFU for each thigh, mean ± standard deviations (24 h) (Staphylococcus aureus [1]; 2 mg/kg/day)	bactericidal effect against Staphylococcus aureus in vivo in mice (Staphylococcus aureus [1]; 6 mg/kg/day)	change values (24 h vs blank group mean 0 h) (Staphylococcus aureus [1]; 6 mg/kg/day)	log10 CFU for each thigh, mean ± standard deviations (24 h) (Staphylococcus aureus [1]; 6 mg/kg/day)	change values (24 h vs blank group mean 0 h) (Staphylococcus aureus [1]; 18 mg/kg/day)	log10 CFU for each thigh, mean ± standard deviations (24 h) (Staphylococcus aureus [1]; 18 mg/kg/day)	MIC (Escherichia coli; Table 4)	MIC90 [2]	MIC [3]	MIC (Enterococcus faecalis)	MIC90 (Hemophilus influenzae)	MIC90 [4]	MIC90 (Acinetobacter baumannii)	MIC90 (Staphylococcus aureus [5])	MIC (Staphylococcus aureus [5])	other results
CN(C)c1cc(CN2CC3CC3C2)c(O)c2c1C[C@H]1C[C@H]3[C@H](N(C)C)C(O)=C(C(N)=O)C(=O)[C@@]3(O)C(O)=C1C2=O (stereo partly drawn) [Compound 23, (4S,4aS,5aR,12aS)-9-(3-azabicyclo[3.1.0]hexan-3-ylmethyl)-4,7-bis(dimethylamino)-3,10,12,12a-tetrahydroxy-1,11-dioxo-1,4,4a,5,5a,6,11,12a-octahydrotetracene-2-carboxamide]	9110 ng·h/mL	5 L/kg	9.33 mL/min/kg	9.94 h	1.28 log10 CFU	7.67 ± 0.17 log10 CFU	had bactericidal effect	−0.12 log10 CFU	6.27 ± 0.41 log10 CFU	−2.04 log10 CFU	4.35 ± 0.45 log10 CFU	0.25 µg/mL (≈ 0.452 µM)	0.125 µg/mL (≈ 0.226 µM)	0.125 µg/mL (≈ 0.226 µM)	0.06 µg/mL (≈ 0.109 µM)	0.5 µg/mL (≈ 0.905 µM)	0.5 µg/mL (≈ 0.905 µM)	2 µg/mL (≈ 3.62 µM)	0.25 µg/mL (≈ 0.452 µM)	0.25 µg/mL (≈ 0.452 µM)	AUC(0-inf) (in vivo; po, 5 mg/kg): 2000 ng·h/mL; Cmax (in vivo; po, 5 mg/kg): 199 ng/mL; Tmax (in vivo; po, 5 mg/kg): 1 h; bioavailability (in vivo; po, 5 mg/kg): 22%; bacteria reducing value of each thigh (Staphylococcus aureus [1]; 6 mg/kg/day): 0.12; MIC (Klebsiella pneumoniae; Table 4): 1 µg/mL (≈ 1.81 µM); MIC ([4]; Table 4, agar dilution): 0.25 µg/mL (≈ 0.452 µM); MIC (Acinetobacter baumannii; [10]): 1 µg/mL (≈ 1.81 µM); MIC (Streptococus agalactiae): 0.06 µg/mL (≈ 0.109 µM)
CN(C)c1cc(NC(=O)CNC(C)(C)C)c(O)c2c1C[C@H]1C[C@H]3[C@H](N(C)C)C(O)=C(C(N)=O)C(=O)[C@@]3(O)C(O)=C1C2=O [tigecycline]	5120 ng·h/mL	4.47 L/kg	16.5 mL/min/kg	3.8 h	1.63 log10 CFU	8.02 ± 0.24 log10 CFU	did not show bactericidal effect	0.63 log10 CFU	7.02 ± 0.43 log10 CFU	−2.19 log10 CFU	4.20 ± 0.25 log10 CFU	–	0.25 µg/mL (≈ 0.427 µM)	–	–	0.5 µg/mL (≈ 0.854 µM)	1 µg/mL (≈ 1.71 µM)	4 µg/mL (≈ 6.83 µM)	0.5 µg/mL (≈ 0.854 µM)	0.25 µg/mL (≈ 0.427 µM)	AUC ([6]; time 0-24 h): 3550 ng·h/mL; T1/2 [6]: 1 h; AUC(0-inf) (in vivo; po, 10 mg/kg): 296 ng·h/mL; Cmax (in vivo; po, 10 mg/kg): 31.8 ng/mL; Tmax (in vivo; po, 10 mg/kg): 0.5 h; bioavailability (in vivo; po, 10 mg/kg): 1.8%; absorption in vivo when orally used [7]: can not be absorbed in vivo when orally used; absorption in an oral use [8]: can not be absorbed in an oral use; bacteria growing values of each thigh (Staphylococcus aureus [1]; 6 mg/kg/day): 0.63
CN(C)c1cc(CNCC(C)(C)C)c(O)c2c1C[C@H]1C[C@H]3[C@H](N(C)C)C(O)=C(C(N)=O)C(=O)[C@@]3(O)C(O)=C1C2=O [PTK-0796, reference compound]	–	–	–	–	1.77 log10 CFU	8.16 ± 0.13 log10 CFU	did not show bactericidal effect	1.20 log10 CFU	7.59 ± 0.21 log10 CFU	−1.05 log10 CFU	5.34 ± 0.79 log10 CFU	4 µg/mL (≈ 7.19 µM)	0.5 µg/mL (≈ 0.898 µM)	0.5 µg/mL (≈ 0.898 µM)	0.25 µg/mL (≈ 0.449 µM)	1 µg/mL (≈ 1.8 µM)	2 µg/mL (≈ 3.59 µM)	8 µg/mL (≈ 14.4 µM)	0.5 µg/mL (≈ 0.898 µM)	0.5 µg/mL (≈ 0.898 µM)	bacteria growing values of each thigh (Staphylococcus aureus [1]; 6 mg/kg/day): 1.20; MIC [9]: 0.5 µg/mL (≈ 0.898 µM); MIC (Escherichia coli; Table 2): 1 µg/mL (≈ 1.8 µM); MIC (Streptococcus pyogenes): 0.25 µg/mL (≈ 0.449 µM); MIC (Klebsiella pneumoniae; Table 2): 4 µg/mL (≈ 7.19 µM); MIC (Klebsiella pneumoniae; Table 4): 8 µg/mL (≈ 14.4 µM); MIC ([4]; Table 2, agar dilution): 0.5 µg/mL (≈ 0.898 µM); MIC ([4]; Table 4, agar dilution): 2 µg/mL (≈ 3.59 µM); MIC (Acinetobacter baumannii; Table 2, agar dilution, read-out: antibacterial activity MIC, Acinetbacter baumannii): 2 µg/mL (≈ 3.59 µM); MIC (Acinetobacter baumannii; [10]): 4 µg/mL (≈ 7.19 µM); MIC (Streptococus agalactiae): 0.5 µg/mL (≈ 0.898 µM)
